Measurements taken from US11827917B1, “Methods for the conversion of fermentable sugars to ethanol” (Colorado State University Research Foundation, priority 2020, dated 2023).
Marks after values point to notes of the source that are not given here.

How the values were obtained:
Assay type in all cases: cell-based, Saccharomyces cerevisiae
S. cerevisiae JAY 270 = assay: Serum-bottle cultivation in YPD: biomass, glycerol, ethanol yields
Protocol: Procedure: Cultivations in serum bottles were used to determine the effect of the best-performing screened chemicals on the ethanol yield. S. cerevisiae JAY 270 was pre-cultured in 100 mL of YPD medium in 200-mL serum bottles overnight in a shaker at 30° C. and 200 rpm. The precultured yeast cells were collected and washed twice as described above. The cell pellet was resuspended in about 10 mL of 0.8% (w/v) NaCl and the cell concentration was estimated as OD600. TyrOH, PheOH, and TrpOH were added to 30 mL of YPD medium in 100-mL serum bottles at 0.05% and 0.2% respectively. The same amount of DMSO was added to YPD medium to serve as the control for TrpOH and TyrOH treatments. The bottles were inoculated with the prepared yeast cells to obtain an initial cell concentration of OD600=0.2. The serum bottles were sealed and cultured in a shaker at 30° C. and 200 rpm for 24 h. Each condition had three biological replicates.
(§1) Analytical methods: Cell growth was evaluated by monitoring OD600 and cell dry mass concentration. For dry mass measurements, 1.0 mL of culture was transferred to a pre-dried and pre-weighed 2-mL centrifuge tube. The tubes were centrifuged for 10 min at 14000 rpm using a microcentrifuge, and then the cell pellets were dried in an oven for 3 days at 65° C. The cell dry mass was determined by subtracting the initial tube mass from the dried mass of tube with cells. The concentrations of glucose, ethanol, and glycerol were measured via HPLC (Shimadzu LC20A series) outfitted with a refractive index detector and using an Aminex HPX-87H (300×7.8 mm) organic acid column and Cation H+ guard cartridge (Bio Rad Laboratories, Hercules, CA). The column was maintained at 65° C. and the mobile phase was 5 mM sulfuric acid with a flow rate of 0.6 mL/min. Standard compound solutions were used to calibrate the HPLC. Each sample was analyzed three times by HPLC.

S. cerevisiae JAY 241 = assay: Serum-bottle cultivation in YPD, different yeast strains; conditions: 0.2%
Protocol: as §1
(§2) Procedure: Seven yeast strains (S. cerevisiae ATCC 26603, S. cerevisiae JAY 238, S. cerevisiae JAY 240, S. cerevisiae JAY 241, S. paradoxus JAY 1502, S. kudriavzezii JAY 1503, and S. mikatae JAY 1504) were pre-cultured in 30 mL of YPD medium in 100 mL serum bottle overnight in a shaker at 30° C. and 200 rpm. The precultured yeast cells of each strains were collected and washed twice. Finally, the cell pellet was resuspended in about 10 mL 0.8% (w/v) NaCl and the OD600 measured. TyrOH, PheOH, and TrpOH were added to 30 mL of YPD medium in 100-mL serum bottles at 0.2% (w/v) respectively. The same amount of DMSO was added in YPD medium and served as control to the TrpOH and TyrOH treatments. The prepared yeast cells were added to obtain the initial cell concentration at OD600=0.2. The serum bottles were sealed and cultured in a shaker at 30° C. and 200 rpm for 24 h. There were three biological replicates for each treatment.

S. cerevisiae JAY 240 = assay: as above; conditions: 0.2%
Protocol: as §1, §2

S. cerevisiae ATCC 26603 = assay: as above; conditions: 0.2%
Protocol: as §1, §2

S. cerevisiae JAY 238 = assay: as above; conditions: 0.2%
Protocol: as §1, §2

[1] = 0.05% (w/v), YPD, serum bottles
[2] = S. cerevisiae JAY 241, YPD (Table 9B)
[3] = S. cerevisiae JAY 240, YPD (Table 9B)
[4] = S. cerevisiae ATCC 26603, YPD (Table 9B)
[5] = S. cerevisiae JAY 238, YPD (Table 9B)

OCCc1c[nH]c2ccccc12 [TrpOH, tryptophol]
Biomass Yield (S. cerevisiae JAY 270; [1]): 0.078 + 0.001 g/g | Biomass yield % change vs. control (S. cerevisiae JAY 270; [1]): −22* % | EtOH yield (S. cerevisiae JAY 270; [1]): 0.41 ± 0.01 g/g | EtOH yield % change vs. control (S. cerevisiae JAY 270; [1]): 7.9* % | Glycerol yield (S. cerevisiae JAY 270; [1]): 0.027 ± 0.001 g/g | Glycerol yield % change vs. control (S. cerevisiae JAY 270; [1]): −20* % | Biomass yield vs. reference (S. cerevisiae JAY 270; 0.05%, YPD, serum bottles): −22.0% | Ethanol yield (S. cerevisiae JAY 270; 0.05%, YPD, serum bottles): 0.41 ± 0.01 g/g | Ethanol yield vs. reference (S. cerevisiae JAY 270; 0.05%, YPD, serum bottles): 7.9% | Glycerol yield (S. cerevisiae JAY 270; 0.05%, YPD, serum bottles): 0.027 ± 0.001 g/g | Glycerol yield vs. reference (S. cerevisiae JAY 270; 0.05%, YPD, serum bottles): −19.6% | OD600 (S. cerevisiae JAY 270; 0.05%, YPD, serum bottles): 3.01 | Effect on yeast cell growth (S. cerevisiae JAY 270; 0.2%): reduced yeast cell growth | Biomass Yield (S. cerevisiae JAY 270; 0.2% (w/v), YPD, serum bottles): 0.042 + 0.006 g/g | Biomass yield % change vs. control (S. cerevisiae JAY 270; 0.2% (w/v), YPD, serum bottles): −58* % | EtOH yield (S. cerevisiae JAY 270; 0.2% (w/v), YPD, serum bottles): 0.41 ± 0.01 g/g | EtOH yield % change vs. control (S. cerevisiae JAY 270; 0.2% (w/v), YPD, serum bottles): 10* % | Glycerol yield (S. cerevisiae JAY 270; 0.2% (w/v), YPD, serum bottles): 0.027 ± 0.009 g/g | Glycerol yield % change vs. control (S. cerevisiae JAY 270; 0.2% (w/v), YPD, serum bottles): −22* % | Biomass yield vs. reference (S. cerevisiae JAY 270; 0.2%, YPD, serum bottles): −58.2% | Effect on ethanol yield (S. cerevisiae JAY 270; 0.2%, YPD, serum bottles): increased the ethanol yield significantly | Ethanol yield (S. cerevisiae JAY 270; 0.2%, YPD, serum bottles): 0.41 ± 0.01 g/g | Ethanol yield vs. reference (S. cerevisiae JAY 270; 0.2%, YPD, serum bottles): 10.3% | Glycerol yield (S. cerevisiae JAY 270; 0.2%, YPD, serum bottles): 0.027 ± 0.009 g/g | Glycerol yield vs. reference (S. cerevisiae JAY 270; 0.2%, YPD, serum bottles): −21.9% | OD600 (S. cerevisiae JAY 270; 0.2%, YPD, serum bottles): 1.52 | Biomass Yield (S. cerevisiae JAY 241; S. cerevisiae JAY 241): 0.063 ± 0.004 g/g | Biomass yield % change vs. control (S. cerevisiae JAY 241; S. cerevisiae JAY 241): +8.6% | EtOH yield (S. cerevisiae JAY 241; S. cerevisiae JAY 241): 0.435 ± 0.035 g/g | Glycerol yield (S. cerevisiae JAY 241; S. cerevisiae JAY 241): 0.041 ± 0.004 g/g | Glycerol yield % change vs. control (S. cerevisiae JAY 241; S. cerevisiae JAY 241): −26* % | DCW Δ vs. ref (S. cerevisiae JAY 241; S. cerevisiae JAY 241, YPD): 58.5% | OD600 (S. cerevisiae JAY 241; S. cerevisiae JAY 241, YPD): 1.00 | OD600 Δ vs. ref (S. cerevisiae JAY 241; S. cerevisiae JAY 241, YPD): 50.1% | Biomass Yield (S. cerevisiae JAY 241; [2]): 0.063 + 0.004 g/g | Biomass yield Δ vs. ref (S. cerevisiae JAY 241; [2]): 8.6% | Ethanol yield (S. cerevisiae JAY 241; [2]): 0.435 ± 0.035 g/g | Ethanol yield Δ vs. ref (S. cerevisiae JAY 241; [2]): 13.8% | Glycerol yield (S. cerevisiae JAY 241; [2]): 0.041 ± 0.004 g/g | Glycerol yield Δ vs. ref (S. cerevisiae JAY 241; [2]): −25.72% | Biomass Yield (S. cerevisiae JAY 240; S. cerevisiae JAY 240): 0.055 ± 0.006 g/g | Biomass yield % change vs. control (S. cerevisiae JAY 240; S. cerevisiae JAY 240): −24* % | EtOH yield (S. cerevisiae JAY 240; S. cerevisiae JAY 240): 0.464 ± 0.053 g/g | Glycerol yield (S. cerevisiae JAY 240; S. cerevisiae JAY 240): 0.035 ± 0.000 g/g | Glycerol yield % change vs. control (S. cerevisiae JAY 240; S. cerevisiae JAY 240): −12* % | DCW (S. cerevisiae JAY 240; S. cerevisiae JAY 240, YPD): 1.55 mg | DCW Δ vs. ref (S. cerevisiae JAY 240; S. cerevisiae JAY 240, YPD): 50.8% | OD600 (S. cerevisiae JAY 240; S. cerevisiae JAY 240, YPD): 1.12 | OD600 Δ vs. ref (S. cerevisiae JAY 240; S. cerevisiae JAY 240, YPD): 45.0% | Biomass Yield (S. cerevisiae JAY 240; [3]): 0.055 + 0.006 g/g | Biomass yield Δ vs. ref (S. cerevisiae JAY 240; [3]): −23.5% | Ethanol yield (S. cerevisiae JAY 240; [3]): 0.464 ± 0.053 g/g | Ethanol yield Δ vs. ref (S. cerevisiae JAY 240; [3]): 14.5% | Glycerol yield (S. cerevisiae JAY 240; [3]): 0.035 ± 0.000 g/g | Glycerol yield Δ vs. ref (S. cerevisiae JAY 240; [3]): −11.63% | Biomass Yield (S. cerevisiae ATCC 26603; S. cerevisiae ATCC 26603): 0.059 ± 0.001 g/g | Biomass yield % change vs. control (S. cerevisiae ATCC 26603; S. cerevisiae ATCC 26603): −17* % | EtOH yield (S. cerevisiae ATCC 26603; S. cerevisiae ATCC 26603): 0.495 ± 0.008 g/g | Glycerol yield (S. cerevisiae ATCC 26603; S. cerevisiae ATCC 26603): 0.054 ± 0.005 g/g | Glycerol yield % change vs. control (S. cerevisiae ATCC 26603; S. cerevisiae ATCC 26603): −25* % | DCW (S. cerevisiae ATCC 26603; S. cerevisiae ATCC 26603, YPD): 1.13 mg | DCW Δ vs. ref (S. cerevisiae ATCC 26603; S. cerevisiae ATCC 26603, YPD): 64.2% | OD600 (S. cerevisiae ATCC 26603; S. cerevisiae ATCC 26603, YPD): 0.77 | OD600 Δ vs. ref (S. cerevisiae ATCC 26603; S. cerevisiae ATCC 26603, YPD): 54.8% | Biomass Yield (S. cerevisiae ATCC 26603; [4]): 0.059 + 0.001 g/g | Biomass yield Δ vs. ref (S. cerevisiae ATCC 26603; [4]): −16.7% | Ethanol yield (S. cerevisiae ATCC 26603; [4]): 0.495 ± 0.008 g/g | Ethanol yield Δ vs. ref (S. cerevisiae ATCC 26603; [4]): 14.2% | Glycerol yield (S. cerevisiae ATCC 26603; [4]): 0.054 ± 0.005 g/g | Glycerol yield Δ vs. ref (S. cerevisiae ATCC 26603; [4]): −24.74% | Biomass Yield (S. cerevisiae JAY 238; S. cerevisiae JAY 238): 0.060 ± 0.000 g/g | Biomass yield % change vs. control (S. cerevisiae JAY 238; S. cerevisiae JAY 238): −12* % | EtOH yield (S. cerevisiae JAY 238; S. cerevisiae JAY 238): 0.482 ± 0.017 g/g | Glycerol yield (S. cerevisiae JAY 238; S. cerevisiae JAY 238): 0.023 ± 0.002 g/g | Glycerol yield % change vs. control (S. cerevisiae JAY 238; S. cerevisiae JAY 238): −49* % | Glycerol yield decrease from control (S. cerevisiae JAY 238; S. cerevisiae JAY 238): 42% | DCW (S. cerevisiae JAY 238; S. cerevisiae JAY 238, YPD): 1.30 mg | DCW Δ vs. ref (S. cerevisiae JAY 238; S. cerevisiae JAY 238, YPD): 46.4% | OD600 (S. cerevisiae JAY 238; S. cerevisiae JAY 238, YPD): 0.39 | OD600 Δ vs. ref (S. cerevisiae JAY 238; S. cerevisiae JAY 238, YPD): 16.7% | Biomass Yield (S. cerevisiae JAY 238; [5]): 0.060 + 0.000 g/g | Biomass yield Δ vs. ref (S. cerevisiae JAY 238; [5]): −11.8% | Ethanol yield (S. cerevisiae JAY 238; [5]): 0.482 ± 0.017 g/g | Ethanol yield Δ vs. ref (S. cerevisiae JAY 238; [5]): 14.7% | Glycerol yield (S. cerevisiae JAY 238; [5]): 0.020 ± 0.002 g/g | Glycerol yield Δ vs. ref (S. cerevisiae JAY 238; [5]): −48.90%
